As a reminder, the EC50 is the concentration at which the effect is half-maximal. High values mean weaker potency, low ones greater potency.

Calls of active or inactive are those of the source. The rule behind the calls is not given here.

22 compounds from ChEMBL document CHEMBL5096127, “Using ChEMBL to complement schistosome drug discovery” (2023) can be followed below.
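Throughout, for Worm movement inhibition: in vitro assay using adult worms.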

For the first test, the system named is Schistosoma mansoni. The experiment in a line: In vitro activity on S. mansoni schistosomula at 10 uM. Type of test: functional, organism-based. The arrangement: test concentration 10 uM, temperature 37 degree C, time incubation 72 h. To be noted: Puerto Rican.
Regarding `Cc1[nH]c(/C=C2\C(=O)Nc3ccc(S(=O)(=O)Cc4c(Cl)cccc4Cl)cc32)c(C)c1C(=O)N1CCC[C@@H]1CN1CCCC1` [PHA-665752], the In vitro activity result is “Active”.

Take `O=C1Nc2cc(Br)ccc2/C1=C1/Nc2ccccc2/C1=N\O` [6BIO]: the In vitro activity entry is “Active”.

Take `COc1cc(N2CCC(N3CCN(C)CC3)CC2)ccc1Nc1ncc(Cl)c(Nc2ccccc2S(=O)(=O)C(C)C)n1` [TAE-684]: the In vitro activity entry was “Active”.

Regarding `CCNC(=O)c1noc(-c2cc(C(C)C)c(O)cc2O)c1-c1ccc(CN2CCOCC2)cc1` [LUMINESPIB], the In vitro activity entry was “Active”.

As for `C[C@@H]1C[C@H]2O[C@@H]2/C=C\C=C\C(=O)Cc2c(Cl)c(O)cc(O)c2C(=O)O1` [RADICICOL], the In vitro activity entry was “Active”.

Turning to `COc1cc(N2CCN(C)CC2)ccc1Nc1nccc(-c2cn(C)c3cnccc23)n1`, the In vitro activity entry was “Active”.

As to `CCNC(=O)c1cc2c(-c3cc(OCCN4CCCC4)c(Cl)cc3Cl)nc(N)nc2s1`, the In vitro activity result was “Active”.

For the compound `CC(/C=C/C(=O)NO)=C\[C@@H](C)C(=O)c1ccc(N(C)C)cc1` [TRICHOSTATIN], the In vitro activity result was “Active”.

Regarding `Cc1cccc(-c2nc(Nc3ccncc3)c3ccccc3n2)n1`, the In vitro activity result is “Active”.

For the compound `OCCCNc1cc(-c2ccnc(Nc3cccc(Cl)c3)n2)ccn1`, the In vitro activity result is “Active”.

With `Cc1n[nH]c2ccc(-c3cncc(OC[C@@H](N)Cc4ccccc4)c3)cc12`, the In vitro activity entry is “Active”.

For `COc1ccc(-c2nc(N3CCOCC3)c3sc(CN(C)c4ncc(C(=O)NO)cn4)cc3n2)cn1` [FIMEPINOSTAT], the In vitro activity result was “Active”.

Turning to `CC1(C)CC(=O)c2c(C(F)(F)F)nn(-c3ccc(C(N)=O)c(N[C@H]4CC[C@H](O)CC4)c3)c2C1` [SNX-2112], the In vitro activity result was “Active”.

For `CC[C@H](C)[C@H](NC(=O)[C@H]([C@@H](C)CC)N(C)C(C)=O)C(=O)N[C@H](C(=O)N[C@@H](CC(C)C)C(=O)[C@@]1(C)CO1)[C@@H](C)O` [EPOXOMYCIN], the In vitro activity result is “Active”.

As for `Fc1ccc(Cl)cc1-c1nc(Nc2ccncc2)c2nccnc2n1`, the In vitro activity entry was “inactive”.

Turning to `C[C@H]1CCCC(=O)CCCCCc2cc(O)cc(O)c2C(=O)O1`, the In vitro activity entry was “inactive”.

On to `CCN1CCN(Cc2ccc(NC(=O)Nc3ccc(Oc4cc(NC)ncn4)cc3)cc2C(F)(F)F)CC1`, for which the In vitro activity entry was “inactive”.

Regarding `O=C(O)c1ccc(CN2CCC(CN[C@@H]3C[C@H]3c3ccccc3)CC2)cc1`, the In vitro activity entry is “inactive”.

Regarding `COc1ncc2cc(C(=O)Nc3cc(C(=O)NCc4cccc(Cl)c4)ccc3Cl)c(=O)[nH]c2n1`, the In vitro activity entry was “inactive”.

As for `Nc1ncnc2c1ncn2[C@@H]1O[C@H](COP(=O)(O)OP(=O)(O)O)[C@@H](O)[C@H]1O`, the In vitro activity entry was “inactive”.

As for `Cl.Cl.O=C(NCCCNc1nc(Nc2cccc(CN3CCOCC3)c2)ncc1C1CC1)C1CCC1`, the In vitro activity result was “Active”.

Consider `CNc1ncc2cc(-c3ccc(-c4cccc(C)n4)cc3Cl)c(=O)n(C[C@H]3OC[C@H](N)CO3)c2n1`, for which the In vitro activity entry is “Active”.

The next test has as its system Schistosoma mansoni. The test can be described thus: In vitro activity on S. mansoni schistosomula at 50 uM. Format: functional, organism-based. Set-up: test concentration 50 uM, temperature 37 degree C, time incubation 72 h. Conditions: Puerto Rican.
Take `Cc1[nH]c(/C=C2\C(=O)Nc3ccc(S(=O)(=O)Cc4c(Cl)cccc4Cl)cc32)c(C)c1C(=O)N1CCC[C@@H]1CN1CCCC1` [PHA-665752]: the In vitro activity result was “Active”.

With `O=C1Nc2cc(Br)ccc2/C1=C1/Nc2ccccc2/C1=N\O` [6BIO], the In vitro activity result was “Active”.

Regarding `COc1cc(N2CCC(N3CCN(C)CC3)CC2)ccc1Nc1ncc(Cl)c(Nc2ccccc2S(=O)(=O)C(C)C)n1` [TAE-684], the In vitro activity entry was “Active”.

Take `CCNC(=O)c1noc(-c2cc(C(C)C)c(O)cc2O)c1-c1ccc(CN2CCOCC2)cc1` [LUMINESPIB]: the In vitro activity entry is “Active”.

Take `C[C@@H]1C[C@H]2O[C@@H]2/C=C\C=C\C(=O)Cc2c(Cl)c(O)cc(O)c2C(=O)O1` [RADICICOL]: the In vitro activity entry is “Active”.

Turning to `COc1cc(N2CCN(C)CC2)ccc1Nc1nccc(-c2cn(C)c3cnccc23)n1`, the In vitro activity result was “Active”.

`CCNC(=O)c1cc2c(-c3cc(OCCN4CCCC4)c(Cl)cc3Cl)nc(N)nc2s1`: the In vitro activity result is “Active”.

For the compound `CC(/C=C/C(=O)NO)=C\[C@@H](C)C(=O)c1ccc(N(C)C)cc1` [TRICHOSTATIN], the In vitro activity entry was “Active”.

For the compound `Cc1cccc(-c2nc(Nc3ccncc3)c3ccccc3n2)n1`, the In vitro activity result is “Active”.

Consider `OCCCNc1cc(-c2ccnc(Nc3cccc(Cl)c3)n2)ccn1`, for which the In vitro activity result is “Active”.

In the case of `Cc1n[nH]c2ccc(-c3cncc(OC[C@@H](N)Cc4ccccc4)c3)cc12`, the In vitro activity result was “Active”.

Turning to `COc1ccc(-c2nc(N3CCOCC3)c3sc(CN(C)c4ncc(C(=O)NO)cn4)cc3n2)cn1` [FIMEPINOSTAT], the In vitro activity entry is “Active”.

For the compound `CC1(C)CC(=O)c2c(C(F)(F)F)nn(-c3ccc(C(N)=O)c(N[C@H]4CC[C@H](O)CC4)c3)c2C1` [SNX-2112], the In vitro activity entry is “Active”.

`CC[C@H](C)[C@H](NC(=O)[C@H]([C@@H](C)CC)N(C)C(C)=O)C(=O)N[C@H](C(=O)N[C@@H](CC(C)C)C(=O)[C@@]1(C)CO1)[C@@H](C)O` [EPOXOMYCIN]: the In vitro activity result was “Active”.

For `Fc1ccc(Cl)cc1-c1nc(Nc2ccncc2)c2nccnc2n1`, the In vitro activity result was “inactive”.

Regarding `C[C@H]1CCCC(=O)CCCCCc2cc(O)cc(O)c2C(=O)O1`, the In vitro activity entry was “inactive”.

Consider `CCN1CCN(Cc2ccc(NC(=O)Nc3ccc(Oc4cc(NC)ncn4)cc3)cc2C(F)(F)F)CC1`, for which the In vitro activity entry is “Active”.

Take `O=C(O)c1ccc(CN2CCC(CN[C@@H]3C[C@H]3c3ccccc3)CC2)cc1`: the In vitro activity result was “inactive”.

In the case of `COc1ncc2cc(C(=O)Nc3cc(C(=O)NCc4cccc(Cl)c4)ccc3Cl)c(=O)[nH]c2n1`, the In vitro activity result was “inactive”.

For the compound `Nc1ncnc2c1ncn2[C@@H]1O[C@H](COP(=O)(O)OP(=O)(O)O)[C@@H](O)[C@H]1O`, the In vitro activity entry was “inactive”.

Consider `Cl.Cl.O=C(NCCCNc1nc(Nc2cccc(CN3CCOCC3)c2)ncc1C1CC1)C1CCC1`, for which the In vitro activity entry is “Active”.

For the compound `CNc1ncc2cc(-c3ccc(-c4cccc(C)n4)cc3Cl)c(=O)n(C[C@H]3OC[C@H](N)CO3)c2n1`, the In vitro activity result is “Active”.

Another test concerns Schistosoma mansoni. The experiment in a line: EC50 on S. mansoni schistosomula. Type of test: functional, organism-based. To be noted: Puerto Rican.
`Cc1[nH]c(/C=C2\C(=O)Nc3ccc(S(=O)(=O)Cc4c(Cl)cccc4Cl)cc32)c(C)c1C(=O)N1CCC[C@@H]1CN1CCCC1` [PHA-665752] yielded an EC50 of 4510 nM.

Regarding `COc1cc(N2CCC(N3CCN(C)CC3)CC2)ccc1Nc1ncc(Cl)c(Nc2ccccc2S(=O)(=O)C(C)C)n1` [TAE-684], the EC50 is 2400 nM.

`CCNC(=O)c1noc(-c2cc(C(C)C)c(O)cc2O)c1-c1ccc(CN2CCOCC2)cc1` [LUMINESPIB]: the response was half-maximal at 194 nM (EC50).

`C[C@@H]1C[C@H]2O[C@@H]2/C=C\C=C\C(=O)Cc2c(Cl)c(O)cc(O)c2C(=O)O1` [RADICICOL] showed an EC50 of 1830 nM.

The compound `COc1cc(N2CCN(C)CC2)ccc1Nc1nccc(-c2cn(C)c3cnccc23)n1` displayed an EC50 of 3400 nM.

Compound `CCNC(=O)c1cc2c(-c3cc(OCCN4CCCC4)c(Cl)cc3Cl)nc(N)nc2s1` registered an EC50 of 547 nM.

`CC(/C=C/C(=O)NO)=C\[C@@H](C)C(=O)c1ccc(N(C)C)cc1` [TRICHOSTATIN] returned an EC50 of 558 nM.

With `Cc1cccc(-c2nc(Nc3ccncc3)c3ccccc3n2)n1`, it took 2620 nM to reach a half-maximal effect (EC50).

Take `OCCCNc1cc(-c2ccnc(Nc3cccc(Cl)c3)n2)ccn1`: the midpoint of the response, the EC50, lay at 410 nM.

Take `Cc1n[nH]c2ccc(-c3cncc(OC[C@@H](N)Cc4ccccc4)c3)cc12`: the half-maximal effective concentration (EC50) turned out to be 2930 nM.

With `COc1ccc(-c2nc(N3CCOCC3)c3sc(CN(C)c4ncc(C(=O)NO)cn4)cc3n2)cn1` [FIMEPINOSTAT], the EC50 is 606 nM.

On to `CC1(C)CC(=O)c2c(C(F)(F)F)nn(-c3ccc(C(N)=O)c(N[C@H]4CC[C@H](O)CC4)c3)c2C1` [SNX-2112], for which the EC50 worked out at 1940 nM.

`CC[C@H](C)[C@H](NC(=O)[C@H]([C@@H](C)CC)N(C)C(C)=O)C(=O)N[C@H](C(=O)N[C@@H](CC(C)C)C(=O)[C@@]1(C)CO1)[C@@H](C)O` [EPOXOMYCIN] showed an EC50 of 226 nM.

Regarding `Cl.Cl.O=C(NCCCNc1nc(Nc2cccc(CN3CCOCC3)c2)ncc1C1CC1)C1CCC1`, the midpoint of the response, the EC50, lay at 3130 nM.

`CNc1ncc2cc(-c3ccc(-c4cccc(C)n4)cc3Cl)c(=O)n(C[C@H]3OC[C@H](N)CO3)c2n1` displayed an EC50 of 2840 nM.

Another test relates to Schistosoma mansoni. Type of test: functional, Puerto Rican. Conditions: temperature 37 degree C; tested at 10 uM; Worm movement inhibition (compared to DMSO control)_lower value 0 %; Worm movement inhibition (compared to DMSO control)_upper value 100 %.
Turning to `Cc1[nH]c(/C=C2\C(=O)Nc3ccc(S(=O)(=O)Cc4c(Cl)cccc4Cl)cc32)c(C)c1C(=O)N1CCC[C@@H]1CN1CCCC1` [PHA-665752], the Worm movement inhibition is recorded as 99.71%.

Turning to `O=C1Nc2cc(Br)ccc2/C1=C1/Nc2ccccc2/C1=N\O` [6BIO], the Worm movement inhibition was 95.74%.

Compound `COc1cc(N2CCC(N3CCN(C)CC3)CC2)ccc1Nc1ncc(Cl)c(Nc2ccccc2S(=O)(=O)C(C)C)n1` [TAE-684] had a Worm movement inhibition of 99.53%.

Compound `CCNC(=O)c1noc(-c2cc(C(C)C)c(O)cc2O)c1-c1ccc(CN2CCOCC2)cc1` [LUMINESPIB] came in with a Worm movement inhibition of 40.22%.

`C[C@@H]1C[C@H]2O[C@@H]2/C=C\C=C\C(=O)Cc2c(Cl)c(O)cc(O)c2C(=O)O1` [RADICICOL] yielded a Worm movement inhibition of 82.43%.

`COc1cc(N2CCN(C)CC2)ccc1Nc1nccc(-c2cn(C)c3cnccc23)n1`: the Worm movement inhibition is given as 93.2%.

Regarding `CCNC(=O)c1cc2c(-c3cc(OCCN4CCCC4)c(Cl)cc3Cl)nc(N)nc2s1`, the Worm movement inhibition was 91.33%.

Compound `CC(/C=C/C(=O)NO)=C\[C@@H](C)C(=O)c1ccc(N(C)C)cc1` [TRICHOSTATIN] gave a Worm movement inhibition of 8.13%.

`Cc1cccc(-c2nc(Nc3ccncc3)c3ccccc3n2)n1` showed a Worm movement inhibition of 40.28%.

The compound `OCCCNc1cc(-c2ccnc(Nc3cccc(Cl)c3)n2)ccn1` yielded a Worm movement inhibition of 98.94%.

Consider `Cc1n[nH]c2ccc(-c3cncc(OC[C@@H](N)Cc4ccccc4)c3)cc12`, for which the Worm movement inhibition came to 93.77%.

In the case of `COc1ccc(-c2nc(N3CCOCC3)c3sc(CN(C)c4ncc(C(=O)NO)cn4)cc3n2)cn1` [FIMEPINOSTAT], the Worm movement inhibition is on record as 56.87%.

The compound `CC1(C)CC(=O)c2c(C(F)(F)F)nn(-c3ccc(C(N)=O)c(N[C@H]4CC[C@H](O)CC4)c3)c2C1` [SNX-2112] gave a Worm movement inhibition of 25.47%.

For the compound `CC[C@H](C)[C@H](NC(=O)[C@H]([C@@H](C)CC)N(C)C(C)=O)C(=O)N[C@H](C(=O)N[C@@H](CC(C)C)C(=O)[C@@]1(C)CO1)[C@@H](C)O` [EPOXOMYCIN], the Worm movement inhibition is reported as 97.15%.

`Cl.Cl.O=C(NCCCNc1nc(Nc2cccc(CN3CCOCC3)c2)ncc1C1CC1)C1CCC1`: the Worm movement inhibition came to 97.58%.

In turn, `CNc1ncc2cc(-c3ccc(-c4cccc(C)n4)cc3Cl)c(=O)n(C[C@H]3OC[C@H](N)CO3)c2n1` gave a Worm movement inhibition of 98.47%.
